For this experiment, the target named is T1, PI3Kδ (Homo sapiens, UniProt O00329).
T1 construct: Full length p110 subunits of PI3k α, β and δ, N-terminally labeled with polyHis tag; polyHis (N); made in house; host or cells: Sf9 insect cells (baculovirus)
T1 sequence (O00329 whole entry): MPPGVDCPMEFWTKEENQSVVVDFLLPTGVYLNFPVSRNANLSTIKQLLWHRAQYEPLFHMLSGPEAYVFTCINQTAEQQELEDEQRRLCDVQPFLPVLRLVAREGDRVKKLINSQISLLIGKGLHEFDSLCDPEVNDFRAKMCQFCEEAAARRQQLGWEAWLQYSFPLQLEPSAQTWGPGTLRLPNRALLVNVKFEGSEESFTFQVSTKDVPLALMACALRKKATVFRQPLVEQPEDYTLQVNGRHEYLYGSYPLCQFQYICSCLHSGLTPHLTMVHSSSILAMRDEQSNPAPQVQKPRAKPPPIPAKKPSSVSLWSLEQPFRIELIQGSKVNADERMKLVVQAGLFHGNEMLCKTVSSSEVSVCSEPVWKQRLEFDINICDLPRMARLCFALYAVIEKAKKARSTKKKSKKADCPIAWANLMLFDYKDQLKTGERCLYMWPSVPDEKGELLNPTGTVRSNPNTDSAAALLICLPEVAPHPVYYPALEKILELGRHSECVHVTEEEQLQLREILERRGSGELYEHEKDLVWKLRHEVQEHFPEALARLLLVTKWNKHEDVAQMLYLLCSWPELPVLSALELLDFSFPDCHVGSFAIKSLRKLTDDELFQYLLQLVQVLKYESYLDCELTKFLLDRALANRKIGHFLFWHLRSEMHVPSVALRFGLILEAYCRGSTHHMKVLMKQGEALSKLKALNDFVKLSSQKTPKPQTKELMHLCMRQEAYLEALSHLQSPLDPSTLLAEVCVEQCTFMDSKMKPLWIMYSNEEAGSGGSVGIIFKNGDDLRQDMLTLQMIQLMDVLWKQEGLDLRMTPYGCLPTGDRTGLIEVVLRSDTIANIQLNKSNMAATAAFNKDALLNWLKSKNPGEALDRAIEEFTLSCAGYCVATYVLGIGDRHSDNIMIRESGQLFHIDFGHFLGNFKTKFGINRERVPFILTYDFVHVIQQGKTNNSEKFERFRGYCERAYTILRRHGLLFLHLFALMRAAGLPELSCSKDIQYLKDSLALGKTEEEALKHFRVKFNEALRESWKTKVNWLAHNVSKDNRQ
T1 sequence (P27986 whole entry partner): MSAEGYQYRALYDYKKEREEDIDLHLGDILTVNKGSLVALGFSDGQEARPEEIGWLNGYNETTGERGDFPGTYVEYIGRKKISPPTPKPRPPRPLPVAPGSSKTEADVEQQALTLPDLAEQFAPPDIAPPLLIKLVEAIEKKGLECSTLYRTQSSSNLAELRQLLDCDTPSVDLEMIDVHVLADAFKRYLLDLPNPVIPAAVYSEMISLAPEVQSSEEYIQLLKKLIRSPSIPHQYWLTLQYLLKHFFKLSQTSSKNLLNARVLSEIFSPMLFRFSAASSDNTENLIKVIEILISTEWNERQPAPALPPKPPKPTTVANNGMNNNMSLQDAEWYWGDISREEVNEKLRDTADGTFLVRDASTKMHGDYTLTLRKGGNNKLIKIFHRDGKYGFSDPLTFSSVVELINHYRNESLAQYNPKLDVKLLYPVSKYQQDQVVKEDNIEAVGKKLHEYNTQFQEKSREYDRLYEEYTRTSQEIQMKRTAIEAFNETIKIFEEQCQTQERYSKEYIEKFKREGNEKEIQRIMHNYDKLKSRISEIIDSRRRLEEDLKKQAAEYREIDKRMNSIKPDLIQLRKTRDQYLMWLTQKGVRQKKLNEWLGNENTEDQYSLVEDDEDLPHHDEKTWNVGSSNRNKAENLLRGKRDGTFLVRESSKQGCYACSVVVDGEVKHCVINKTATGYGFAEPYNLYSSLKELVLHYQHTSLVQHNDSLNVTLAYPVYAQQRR
Nature of the experiment: PI3Kδ Alphascreen assay. In kind it is biochemical.
As usually defined, the Ki is a measure of affinity in units of concentration, obtained from inhibition or displacement. Consider `Cc1c(N2CC(C)(C)CCC2=O)nc2cc(F)cc(F)c2c1Nc1cncc(N2CCOCC2)c1` [1-(5,7-difluoro-3-methyl-4-((5-(4-morpholinyl)-3-pyridinyl)-amino)-2-quinolinyl)-5,5-dimethyl-2-piperidinone], for which the Ki turned out to be 38.6 nM.
The same measure for `COC(=O)N1CCN(c2nc3cc(F)cc(F)c3c(Nc3cc(N4CCOCC4)cnc3N3CCOCC3)c2C)CC1` [methyl 4-(4-((2,5-di-4-morpholinyl-3-pyridinyl)amino)-5,7-difluoro-3-methyl-2-quinolinyl)-1-piperazinecarboxylate]: 7.02 nM; for `Cc1c(N2CCN(C(C)C)C(=O)C2)nc2cc(F)cc(F)c2c1Nc1cc(N2CCOCC2)cnc1N1CCOCC1` [4-(4-((2,5-di-4-morpholinyl-3-pyridinyl)amino)-5,7-difluoro-3-methyl-2-quinolinyl)-1-(1-methylethyl)-2-piperazinone]: 2.38 nM; for `Cc1c(-c2ccc(F)nc2)nc2cc(F)cc(F)c2c1Nc1cc(N2CCOCC2)cnc1N1CCOCC1` [N-(2,5-di-4-morpholinyl-3-pyridinyl)-5,7-difluoro-2-(6-fluoro-3-pyridinyl)-3-methyl-4-quinolinamine]: 18.5 nM.
In the case of `Cc1c(-c2ccccc2[S@+](C)[O-])nc2cc(F)cc(F)c2c1Nc1cc(N2CCOCC2)cnc1N1CCOCC1` [N-(2,5-di-4-morpholinyl-3-pyridinyl)-5,7-difluoro-3-methyl-2-(2-((S)-methylsulfinyl)phenyl)-4-quinolinamine] it was 51 nM; in that of `COc1ccc(-c2ncc(N3CCOCC3)cc2Nc2c(C)c(-c3ccccn3)nc3cc(F)cc(F)c23)cn1` [N-(5,7-difluoro-3-methyl-2-(2-pyridinyl)-4-quinolinyl)-6′-methoxy-5-(4-morpholinyl)-2,3′-bipyridin-3-amine], 1.54 nM; in that of `Cc1c(N2CCN(c3ccccc3)CC2)nc2cc(F)cc(F)c2c1Nc1cncc(N2CCOCC2)c1` [5,7-difluoro-3-methyl-N-(5-(4-morpholinyl)-3-pyridinyl)-2-(4-phenyl-1-piperazinyl)-4-quinolinamine], 78.1 nM.
Compound `COc1cc(-c2nc3cc(F)cc(F)c3c(Nc3cncc(N4CCOCC4)c3)c2C)ccn1` [5,7-difluoro-2-(2-methoxy-4-pyridinyl)-3-methyl-N-(5-(4-morpholinyl)-3-pyridinyl)-4-quinolinamine] yielded an inhibition constant (Ki) of 150 nM.
The same measure for `Cc1c(-c2ccc(N3CCOCC3)nc2)nc2cc(F)cc(F)c2c1Nc1cncc(N2CCOCC2)c1` [5,7-difluoro-3-methyl-N-(5-(4-morpholinyl)-3-pyridinyl)-2-(6-(4-morpholinyl)-3-pyridinyl)-4-quinolinamine]: 444 nM; for `Cc1c(-c2ccnc(N3CCCC3)c2)nc2cc(F)cc(F)c2c1Nc1cncc(N2CCOCC2)c1` [5,7-difluoro-3-methyl-N-(5-(4-morpholinyl)-3-pyridinyl)-2-(2-(1-pyrrolidinyl)-4-pyridinyl)-4-quinolinamine]: 315 nM.
The same measure for `Cc1ccc(-c2nc3cc(F)cc(F)c3c(Nc3cc(N4CCOCC4)cnc3N3CCOCC3)c2C)cc1C` [2-(3,4-dimethylphenyl)-N-(2,5-di-4-morpholinyl-3-pyridinyl)-5,7-difluoro-3-methyl-4-quinolinamine]: 101 nM.
The same measure for `Cc1c(N2CCN(S(=O)(=O)C3CCCC3)CC2)nc2cc(F)cc(F)c2c1Nc1cncc(N2CCOCC2)c1` [2-(4-(cyclopentylsulfonyl)-1-piperazinyl)-5,7-difluoro-3-methyl-N-(5-(4-morpholinyl)-3-pyridinyl)-4-quinolinamine]: 51 nM; for `Cc1c(-c2ccccn2)nc2cc(F)cc(F)c2c1Nc1ccc(C#N)c(N2CCOCC2)c1` [4-((5,7-difluoro-3-methyl-2-(2-pyridinyl)-4-quinolinyl)amino)-2-(4-morpholinyl)benzonitrile]: 484 nM.
`Cc1c(N2CCN(C(=O)OCC(C)C)CC2)nc2cc(F)cc(F)c2c1Nc1cncc(N2CCOCC2)c1` [2-methylpropyl 4-(5,7-difluoro-3-methyl-4-((5-(4-morpholinyl)-3-pyridinyl)amino)-2-quinolinyl)-1-piperazinecarboxylate] yielded a Ki of 108 nM.
In the case of `COc1cncc(-c2nc3cc(F)cc(F)c3c(Nc3cncc(N4CCOCC4)c3)c2C)c1` [5,7-difluoro-2-(5-methoxy-3-pyridinyl)-3-methyl-N-(5-(4-morpholinyl)-3-pyridinyl)-4-quinolinamine], the Ki was 37.4 nM.
In the case of `Cc1c(-c2ccccn2)nc2cc(F)cc(F)c2c1Nc1cc(N2CCOCC2)cnc1Cl` [N-(2-chloro-5-(4-morpholinyl)-3-pyridinyl)-5,7-difluoro-3-methyl-2-(2-pyridinyl)-4-quinolinamine] it was 4.26 nM.
The same measure for `CCOc1ccc(-c2ncc(N3CCOCC3)cc2Nc2c(C)c(-c3ccccn3)nc3cc(F)cc(F)c23)cn1` [N-(5,7-difluoro-3-methyl-2-(2-pyridinyl)-4-quinolinyl)-6′-ethoxy-5-(4-morpholinyl)-2,3′-bipyridin-3-amine]: 2.62 nM; for `Cc1c(-c2ccccn2)nc2ncccc2c1Nc1cncc(N2CCOCC2)c1` [3-methyl-N-(5-(4-morpholinyl)-3-pyridinyl)-2-(2-pyridinyl)-1,8-naphthyridin-4-amine]: 716 nM; for `CCOc1ccc(-c2nc3cc(F)cc(F)c3c(Nc3cncc(N4CCOCC4)c3)c2C)cn1` [2-(6-ethoxy-3-pyridinyl)-5,7-difluoro-3-methyl-N-(5-(4-morpholinyl)-3-pyridinyl)-4-quinolinamine]: 291 nM.
The same measure for `Cc1c(-c2cnccn2)nc2cc(F)cc(F)c2c1Nc1cc(N2CCOCC2)cnc1N1CCOCC1` [N-(2,5-di-4-morpholinyl-3-pyridinyl)-5,7-difluoro-3-methyl-2-(2-pyrazinyl)-4-quinolinamine]: 7.95 nM; for `Cc1c(-c2ccc(N3CCN(C)CC3)nc2)nc2cc(F)cc(F)c2c1Nc1cc(N2CCOCC2)cnc1N1CCOCC1` [N-(2,5-di-4-morpholinyl-3-pyridinyl)-5,7-difluoro-3-methyl-2-(6-(4-methyl-1-piperazinyl)-3-pyridinyl)-4-quinolinamine]: 295 nM; for `Cc1c(N2CCN(C(=O)c3cocn3)CC2)nc2cc(F)cc(F)c2c1Nc1cncc(N2CCOCC2)c1` [5,7-difluoro-3-methyl-N-(5-(4-morpholinyl)-3-pyridinyl)-2-(4-(1,3-oxazol-4-ylcarbonyl)-1-piperazinyl)-4-quinolinamine]: 14.5 nM.
As to `Cc1c(N2CCOCC2)nc2cc(F)cc(F)c2c1Nc1cncc(C2=CCOCC2)c1` [N-(5-(3,6-dihydro-2H-pyran-4-yl)-3-pyridinyl)-5,7-difluoro-3-methyl-2-(4-morpholinyl)-4-quinolinamine], the Ki came to 68.3 nM.
Take `COc1cncc(-c2ncc(N3CCOCC3)cc2N(C(=O)C(F)(F)F)c2c(C)c(-c3ccccn3)nc3cc(F)cc(F)c23)c1` [N-(5,7-difluoro-3-methyl-2-(2-pyridinyl)-4-quinolinyl)-2,2,2-trifluoro-N-(5′-methoxy-5-(4-morpholinyl)-2,3′-bipyridin-3-yl)-acetamide]: affinity was put at a Ki of 227 nM.
In the case of `Cc1c(-c2ccc(N3CCC(C)CC3)nc2)nc2cc(F)cc(F)c2c1Nc1cc(N2CCOCC2)cnc1N1CCOCC1` [N-(2,5-di-4-morpholinyl-3-pyridinyl)-5,7-difluoro-3-methyl-2-(6-(4-methyl-1-piperidinyl)-3-pyridinyl)-4-quinolinamine] it was 134 nM.
The same measure for `Cc1c(N2CCN(S(C)(=O)=O)[C@H](C)C2)nc2cc(F)cc(F)c2c1Nc1cncc(N2CCOCC2)c1` [5,7-difluoro-3-methyl-2-((3R)-3-methyl-4-(methylsulfonyl)-1-piperazinyl)-N-(5-(4-morpholinyl)-3-pyridinyl)-4-quinolinamine]: 244 nM.
Consider `COC(=O)N1CCN(c2nc3cc(F)cc(F)c3c(Nc3cncc(N4CCOCC4)c3)c2C)[C@H](C)C1` [methyl (3R)-4-(5,7-difluoro-3-methyl-4-((5-(4-morpholinyl)-3-pyridinyl)amino)-2-quinolinyl)-3-methyl-1-piperazinecarboxylate], for which the affinity, expressed as Ki, was 31.8 nM.
In the case of `Cc1c(-c2ccc(N(C)C)nc2)nc2cc(F)cc(F)c2c1Nc1cncc(N2CCOCC2)c1` [2-(6-(dimethylamino)-3-pyridinyl)-5,7-difluoro-3-methyl-N-(5-(4-morpholinyl)-3-pyridinyl)-4-quinolinamine], the affinity corresponds to a Ki of 180 nM.
The same measure for `Cc1c(-c2cccnc2)nc2cc(F)cc(F)c2c1N(C(=O)C(F)(F)F)c1cncc(N2CCOCC2)c1` [N-(5,7-difluoro-3-methyl-2-(3-pyridinyl)-4-quinolinyl)-2,2,2-trifluoro-N-(5-(4-morpholinyl)-3-pyridinyl)acetamide]: 47.3 nM; for `Cc1c(-c2ccccc2S(C)(=O)=O)nc2cc(F)cc(F)c2c1Nc1cncc(C2=CCOCC2)c1` [N-(5-(3,6-dihydro-2H-pyran-4-yl)-3-pyridinyl)-5,7-difluoro-3-methyl-2-(2-(methylsulfonyl)phenyl)-4-quinolinamine]: 1.78 nM; for `Cc1c(-c2ccccn2)nc2ncccc2c1Nc1cc(N2CCOCC2)ccc1N1CCOCC1` [N-(2,5-di-4-morpholinylphenyl)-3-methyl-2-(2-pyridinyl)-1,8-naphthyridin-4-amine]: 582 nM.
The same measure for `CCNC(=O)N1CCN(c2nc3cc(F)cc(F)c3c(Nc3cncc(N4CCOCC4)c3)c2C)CC1` [4-(5,7-difluoro-3-methyl-4-((5-(4-morpholinyl)-3-pyridinyl)-amino)-2-quinolinyl)-N-ethyl-1-piperazinecarboxamide]: 24.8 nM.
The same measure for `COc1ccc(-c2ccc(N3CCOCC3)cc2Nc2c(C)c(-c3ccccn3)nc3cc(F)cc(F)c23)cn1` [5,7-difluoro-N-(2-(6-methoxy-3-pyridinyl)-5-(4-morpholinyl)-phenyl)-3-methyl-2-(2-pyridinyl)-4-quinolinamine]: 3.19 nM; for `Cc1c(-c2ccccn2)nc2c(C#N)cccc2c1Nc1cc(N2CCOCC2)cnc1N1CCOCC1` [4-((2,5-di-4-morpholinyl-3-pyridinyl)amino)-3-methyl-2-(2-pyridinyl)-8-quinolinecarbonitrile]: 54.4 nM.

The values above are taken from patent publication US8940724B2, “Quinoline derivitives and their uses” (Amgen Inc., priority 2009, dated 2015).
